Active and inactive are the calls of the source. The calls are words filed in the database; no cut-off is given here.
Columns and labels:
[1] = target: S-phase kinase-associated protein 2 (Homo sapiens) (UniProt Q13309); assay: Binding affinity to SKP2 in human PC-3 cells assessed as increase in thermal stability at 57 to 68 degreeC incubated for 4 hrs by CETSA; format: cell-based
MGC-803 [2] = assay: Inhibition of cell proliferation in human MGC-803 cells incubated for 24 to 72 hrs by MTT assay; format: functional, cell-based; details: dose 2-50 µM, time 24-72 hrs
PC-3 [3] = assay: Induction of cell cycle arrest in human PC-3 cells assessed as cells at S phase at 7.5 uM incubated for 36 hrs by PI staining based flow cytometry (reference value: 22.8%); format: functional
PC-3 [4] = assay: Induction of cell cycle arrest in human PC-3 cells assessed as cells at G0/G1 phase at 15 uM incubated for 6 hrs by PI staining based flow cytometry (reference value: 55.1%); format: functional
PC-3 [5] = assay: Induction of cell cycle arrest in human PC-3 cells assessed as cells at G0/G1 phase at 15 uM incubated for 12 hrs by PI staining based flow cytometry (reference value: 55.1%); format: functional
PC-3 [6] = assay: Induction of cell cycle arrest in human PC-3 cells assessed as cells at G0/G1 phase at 15 uM incubated for 24 hrs by PI staining based flow cytometry (reference value: 55.1%); format: functional
PC-3 [7] = assay: Induction of cell cycle arrest in human PC-3 cells assessed as cells at S phase at 15 uM incubated for 24 hrs by PI staining based flow cytometry (reference value: 22.9%); format: functional
PC-3 [8] = assay: Induction of cell cycle arrest in human PC-3 cells assessed as cells at G0/G1 phase at 15 uM incubated for 48 hrs by PI staining based flow cytometry (reference value: 55.1%); format: functional
PC-3 [9] = assay: Induction of cell cycle arrest in human PC-3 cells assessed as cells at G2/M phase at 15 uM incubated for 48 hrs by PI staining based flow cytometry (reference value: 21.4%); format: functional
MGC-803 [10] = assay: Induction of cell cycle arrest in human MGC-803 cells assessed as cells at S phase at 15 uM incubated for 6 hrs by PI staining based flow cytometry (reference value: 19.6%); format: functional
MGC-803 [11] = assay: Induction of cell cycle arrest in human MGC-803 cells assessed as cells at S phase at 15 uM incubated for 12 hrs by PI staining based flow cytometry (reference value: 19.6%); format: functional
MGC-803 [12] = assay: Induction of cell cycle arrest in human MGC-803 cells assessed as cells at G2/M phase at 15 uM incubated for 48 hrs by PI staining based flow cytometry (reference value: 20.8%); format: functional
PC-3 [13] = assay: Downregulation of SKP2 protein level in human PC-3 cells incubated for 48 hrs by Western blotting analysis; format: functional, cell-based; details: dose 5-15 µM
MGC-803 [14] = assay: Upregulation of p21 protein expression in human MGC-803 cells at 5 to 15 uM incubated for 48 hrs by Western blotting analysis; format: functional, cell-based; details: dose 5-15 µM
MGC-803 [15] = assay: Upregulation of p27 protein expression in human MGC-803 cells at 5 to 15 uM incubated for 48 hrs by Western blotting analysis; format: functional, cell-based; details: dose 5-15 µM
MGC-803 [16] = assay: Upregulation of p21 protein expression in human MGC-803 cells at 15 uM by Western blotting analysis; format: functional, cell-based; details: time 6-48 hrs, TDE = time-dependent effect
MGC-803 [17] = assay: Antitumor activity against human MGC-803 cells xenografted in NOD-SCID mouse assessed as tumor growth inhibition at 25 mg/kg, IG administered for 21 days; format: functional; details: MGC-803, po, 504 h, time 21 day, read-out: TGI
[18] = Toxicity against NOD-SCID mouse assessed as change in lung morphology at 25 to 50 mg/kg, IG administered for 21 days by H and E staining based assay; format: organism-based; details: in vivo, po, 504 h, dose 25-50 mg/kg, time 21 day

Chain of S-phase kinase-associated protein 2 (Homo sapiens) (Q13309 whole entry): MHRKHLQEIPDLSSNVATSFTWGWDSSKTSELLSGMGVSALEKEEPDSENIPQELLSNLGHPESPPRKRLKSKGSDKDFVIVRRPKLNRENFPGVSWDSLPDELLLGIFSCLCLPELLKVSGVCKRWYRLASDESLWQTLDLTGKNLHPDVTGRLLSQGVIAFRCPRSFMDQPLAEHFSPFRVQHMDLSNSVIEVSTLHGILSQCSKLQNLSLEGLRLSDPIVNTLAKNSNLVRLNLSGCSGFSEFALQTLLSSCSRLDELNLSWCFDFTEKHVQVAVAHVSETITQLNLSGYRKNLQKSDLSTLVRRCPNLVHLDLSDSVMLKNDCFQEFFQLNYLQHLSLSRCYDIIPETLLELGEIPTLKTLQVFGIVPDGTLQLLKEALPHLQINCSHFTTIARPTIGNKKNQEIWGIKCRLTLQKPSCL

Q: For `COc1ccc(-c2cc(C)nc3nc(SCc4ccc(Br)cc4)nn23)c(OC)c1`, which Activity [1] is on record?
A: Active

Q: And the inhibition (MGC-803 [2])?
A: Dose-Dependent Effect

Q: What about the Activity (PC-3 [3]) of the same compound?
A: 37.2%

Q: And the Activity (PC-3 [4])?
A: 52.8%

Q: And the Activity (PC-3 [5])?
A: 48.3%

Q: And the Activity (PC-3 [6])?
A: 39.3%

Q: And the Activity (PC-3 [7])?
A: 38.6%

Q: And the Activity (PC-3 [8])?
A: 36.9%

Q: What about the Activity (PC-3 [9]) of the same compound?
A: 22.5%

Q: What about the Activity (MGC-803 [10]) of the same compound?
A: 26.8%

Q: And the Activity (MGC-803 [11])?
A: 31.2%

Q: What about the Activity (MGC-803 [12]) of the same compound?
A: 20.1%

Q: And the Activity (PC-3 [13])?
A: Dose-Dependent Effect

Q: And the Activity (MGC-803 [14])?
A: Active

Q: What about the Activity (MGC-803 [15]) of the same compound?
A: Active

Q: And the Activity (MGC-803 [16])?
A: Tde

Q: And the inhibition in vivo at 25 mg/kg (MGC-803 [17])?
A: 50.9%

Q: And the Activity [18]?
A: Non-Toxic
